This note sets out measurements from ChEMBL document CHEMBL1201862, “PubChem BioAssay data set” (2004).

Data set [1] in a line: Luminescence Cell-Based Dose Retest to Confirm Inhibitors of Cancer Stem Cells. [Related pubchem assays (depositor defined):AID2717, AID2721]. In kind it is functional. The conditions noted are these: Homo sapiens.
Data set [2] in a line: viability loss of HMLE_sh_eGFP cells – cell-based, luminescence, counter-screen for HMLE_sh_ECad selective toxicity project, dose response (AID 463074).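 Note: HMLE human mammary epithelial cells expressing control shRNA against eGFP.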 It is filed as functional, Homo sapiens. In general terms: Counterscreens check selectivity or assay interference.
Data set [3] has as its target DNA dC->dU-editing enzyme APOBEC-3A (Homo sapiens, UniProt P31941). The data set is described as follows: Dose Response confirmation of small molecule APOBEC3A DNA Deaminase Inhibitors via a fluorescence-based single-stranded DNA deaminase assay. [Related pubchem assays (depositor defined):AID493011, AID493024]. It is filed as functional.
For data set [4], the target named is DNA dC->dU-editing enzyme APOBEC-3G (Homo sapiens, UniProt Q9HC16). In kind it is functional.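 Note: Dose-response counterscreen measuring inhibition of APOBEC3G DNA deaminase activity, run while confirming APOBEC3A inhibitors.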
The next data set addresses Cytochrome P450 2C19 (Homo sapiens, UniProt P33261). The experiment in a line: Cytochrome panel assay with activity outcomes. Panel member name: p450-cyp2c19 Compounds with AC50 equal or less than 10 uM are considered active. In kind it is functional.
The next data set has as its target Cytochrome P450 3A4 (Homo sapiens, UniProt P08684).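 Note: CYP3A4 tested as one member of a cytochrome P450 panel screen.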
Another data set concerns the target Cytochrome P450 2D6 (Homo sapiens, UniProt P10635).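 Note: CYP2D6 member of a cytochrome P450 panel assay.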
The next data set deals with Jurkat. The experiment in a line: blockers of NF-kB activation in T cells – Jurkat, luciferase reporter, luminescence, B- and T-cell, dose response (AID 489004).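 Note: NF-kB luciferase reporter Jurkat cells stimulated with PMA plus ionomycin.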 It is filed as functional, cell-based. The conditions noted are these: Homo sapiens.
The nature of data set [5]: HEK-293T viability loss, compound-treated – cell-based, uHTS hits, cytotoxicity control for B/T-cell NF-kB inhibitor project, dose response (AID 489019).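 Note: IC50 reflects cytotoxicity as loss of cell viability.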 It is filed as functional.
A short description of data set [6]: microbe, parasite or virus in culture. In kind it is functional. Particulars: Mycobacterium tuberculosis.
Data set [7] deals with Vero. The experiment in a line: cells. In kind it is functional. The conditions noted are these: Chlorocebus sabaeus.
Data set [8] deals with Vero. The data set is described as follows: cells. In kind it is functional, cell-based. Particulars: Chlorocebus sabaeus.
The next data set has as its target T1, Exodeoxyribonuclease V (Escherichia coli (strain K12), UniProt P04993+P07648+P08394).
T1 sequence (P04993 whole entry): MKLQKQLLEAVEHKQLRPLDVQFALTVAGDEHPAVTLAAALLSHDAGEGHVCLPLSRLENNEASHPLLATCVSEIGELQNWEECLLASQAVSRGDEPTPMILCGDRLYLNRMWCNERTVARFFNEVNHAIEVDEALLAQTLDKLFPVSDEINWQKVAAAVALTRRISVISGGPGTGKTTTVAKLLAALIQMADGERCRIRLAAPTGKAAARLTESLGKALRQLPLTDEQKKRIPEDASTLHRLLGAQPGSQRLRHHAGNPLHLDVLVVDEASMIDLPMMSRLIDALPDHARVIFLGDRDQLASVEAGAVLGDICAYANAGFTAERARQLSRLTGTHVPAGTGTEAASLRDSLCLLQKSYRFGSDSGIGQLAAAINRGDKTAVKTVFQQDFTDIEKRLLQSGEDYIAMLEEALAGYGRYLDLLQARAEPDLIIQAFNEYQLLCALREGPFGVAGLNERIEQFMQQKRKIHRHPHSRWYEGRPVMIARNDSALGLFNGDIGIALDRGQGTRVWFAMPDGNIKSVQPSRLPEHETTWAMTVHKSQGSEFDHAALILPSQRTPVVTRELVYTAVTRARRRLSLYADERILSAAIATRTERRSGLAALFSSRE
T1 sequence (P07648 whole entry): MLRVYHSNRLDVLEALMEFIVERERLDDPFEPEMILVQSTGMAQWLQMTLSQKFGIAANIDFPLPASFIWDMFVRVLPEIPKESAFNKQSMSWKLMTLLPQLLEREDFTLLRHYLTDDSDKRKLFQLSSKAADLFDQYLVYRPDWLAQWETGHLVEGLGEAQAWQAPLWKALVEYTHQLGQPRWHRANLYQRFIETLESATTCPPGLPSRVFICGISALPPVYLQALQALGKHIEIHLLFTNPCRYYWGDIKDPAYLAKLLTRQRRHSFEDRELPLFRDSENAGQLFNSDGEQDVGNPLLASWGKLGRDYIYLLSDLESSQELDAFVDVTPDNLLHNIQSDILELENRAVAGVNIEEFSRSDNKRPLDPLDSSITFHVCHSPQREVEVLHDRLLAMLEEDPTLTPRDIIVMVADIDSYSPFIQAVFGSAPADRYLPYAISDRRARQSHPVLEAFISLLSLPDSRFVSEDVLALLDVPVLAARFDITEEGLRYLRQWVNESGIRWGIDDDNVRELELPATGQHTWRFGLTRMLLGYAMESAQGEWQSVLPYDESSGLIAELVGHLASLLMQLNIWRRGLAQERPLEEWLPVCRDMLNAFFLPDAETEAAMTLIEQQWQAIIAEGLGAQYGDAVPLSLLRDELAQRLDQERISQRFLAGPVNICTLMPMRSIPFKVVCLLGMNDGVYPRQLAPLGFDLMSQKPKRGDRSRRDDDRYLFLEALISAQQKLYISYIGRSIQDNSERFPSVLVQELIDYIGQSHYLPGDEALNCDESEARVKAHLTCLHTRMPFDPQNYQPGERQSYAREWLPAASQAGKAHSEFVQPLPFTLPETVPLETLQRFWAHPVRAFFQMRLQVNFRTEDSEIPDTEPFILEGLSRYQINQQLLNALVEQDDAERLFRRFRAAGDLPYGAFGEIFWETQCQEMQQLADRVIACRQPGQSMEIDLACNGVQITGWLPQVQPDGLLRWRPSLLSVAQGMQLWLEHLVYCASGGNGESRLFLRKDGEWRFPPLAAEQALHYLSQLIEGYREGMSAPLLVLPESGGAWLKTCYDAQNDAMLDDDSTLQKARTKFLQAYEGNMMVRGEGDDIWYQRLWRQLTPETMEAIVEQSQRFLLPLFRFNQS
T1 sequence (P08394 whole entry): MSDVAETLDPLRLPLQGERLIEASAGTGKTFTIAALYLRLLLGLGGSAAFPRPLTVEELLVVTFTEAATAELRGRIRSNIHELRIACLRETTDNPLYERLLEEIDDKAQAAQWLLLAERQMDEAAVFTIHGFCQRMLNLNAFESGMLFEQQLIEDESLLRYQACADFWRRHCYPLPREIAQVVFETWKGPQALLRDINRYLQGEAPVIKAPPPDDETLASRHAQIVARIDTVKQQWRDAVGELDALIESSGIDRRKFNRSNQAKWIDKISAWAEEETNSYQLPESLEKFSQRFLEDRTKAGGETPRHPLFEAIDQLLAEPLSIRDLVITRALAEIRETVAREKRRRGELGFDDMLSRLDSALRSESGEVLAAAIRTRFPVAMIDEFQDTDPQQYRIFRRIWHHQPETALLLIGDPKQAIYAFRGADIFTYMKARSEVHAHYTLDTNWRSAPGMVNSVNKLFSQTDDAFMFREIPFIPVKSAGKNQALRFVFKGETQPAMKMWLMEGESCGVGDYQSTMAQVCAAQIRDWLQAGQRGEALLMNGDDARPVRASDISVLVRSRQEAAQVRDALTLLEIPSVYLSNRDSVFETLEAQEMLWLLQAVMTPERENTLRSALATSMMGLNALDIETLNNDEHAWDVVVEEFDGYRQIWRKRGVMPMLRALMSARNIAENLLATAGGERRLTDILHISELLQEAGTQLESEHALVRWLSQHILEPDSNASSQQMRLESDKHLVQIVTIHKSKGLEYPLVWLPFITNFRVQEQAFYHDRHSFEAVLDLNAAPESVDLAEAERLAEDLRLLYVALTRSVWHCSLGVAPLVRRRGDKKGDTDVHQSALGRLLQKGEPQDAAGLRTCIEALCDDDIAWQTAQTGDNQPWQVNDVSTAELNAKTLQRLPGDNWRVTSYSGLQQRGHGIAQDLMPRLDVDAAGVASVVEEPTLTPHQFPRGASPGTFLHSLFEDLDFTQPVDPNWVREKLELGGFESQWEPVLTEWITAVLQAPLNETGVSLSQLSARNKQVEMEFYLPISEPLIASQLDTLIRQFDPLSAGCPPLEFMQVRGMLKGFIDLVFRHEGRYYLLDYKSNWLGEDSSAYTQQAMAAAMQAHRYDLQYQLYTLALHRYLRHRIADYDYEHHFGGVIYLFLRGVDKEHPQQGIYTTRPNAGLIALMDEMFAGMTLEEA
The experiment in a line: RecBCD inhibition via phage-restricted bacterial growth – absorbance, V66 E. coli, mutant T4 phage, counter-screen for AddAB inhibitor project, dose response (AID 492957). It is filed as functional, cell-based, Escherichia coli str. K-12 substr. MG1655.

Data set [9] deals with T2, Zinc finger protein mex-5 (Caenorhabditis elegans, UniProt Q9XUB2).
T2 sequence (Q9XUB2 whole entry): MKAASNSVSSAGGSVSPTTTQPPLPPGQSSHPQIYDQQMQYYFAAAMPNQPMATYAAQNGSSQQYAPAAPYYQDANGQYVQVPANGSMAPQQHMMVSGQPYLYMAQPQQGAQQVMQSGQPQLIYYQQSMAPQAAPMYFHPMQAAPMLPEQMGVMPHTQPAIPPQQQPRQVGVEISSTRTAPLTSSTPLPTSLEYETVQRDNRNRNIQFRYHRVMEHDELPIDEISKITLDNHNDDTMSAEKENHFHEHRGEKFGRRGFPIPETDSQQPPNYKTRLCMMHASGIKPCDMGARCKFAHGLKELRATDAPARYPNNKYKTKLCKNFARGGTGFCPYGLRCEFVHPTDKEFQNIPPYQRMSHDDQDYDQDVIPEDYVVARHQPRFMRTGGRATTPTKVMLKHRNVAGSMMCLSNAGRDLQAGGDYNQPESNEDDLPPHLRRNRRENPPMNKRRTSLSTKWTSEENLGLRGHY
The experiment in a line: potency of MEX-5 RNA-binding blockers – biochemical, C. elegans, fluorescence polarization, dose response (AID 1960). (In general: Fluorescence polarisation rises when a labelled molecule tumbles more slowly, as on binding a larger partner.)

Data set [10] can be described thus: Counterscreen for AddAB inhibitors: absorbance-based bacterial cell-based high throughput dose response assay for inhibitors of bacterial viability. [Related pubchem assays (depositor defined):AID435030, AID449728, AID449731, AID488942, AID488955, AID488956]. It is filed as functional.
Data set [11] deals with T3, RNA-binding protein pos-1 (Caenorhabditis elegans, UniProt G5EF15).
T3 sequence (G5EF15 whole entry): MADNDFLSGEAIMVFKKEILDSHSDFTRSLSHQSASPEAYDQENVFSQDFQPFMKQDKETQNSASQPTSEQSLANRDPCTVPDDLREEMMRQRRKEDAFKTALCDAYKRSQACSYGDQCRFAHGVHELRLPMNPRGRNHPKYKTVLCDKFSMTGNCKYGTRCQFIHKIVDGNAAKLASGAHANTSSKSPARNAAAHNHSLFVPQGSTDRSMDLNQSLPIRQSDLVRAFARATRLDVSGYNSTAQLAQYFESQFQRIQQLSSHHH
The data set is described as follows: disruptors of C. elegans POS-1 RNA interaction – biochemical, fluorescence polarization, dose response (AID 1964).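 Note: purified POS-1 fused to maltose binding protein made in E. coli; potency of compounds blocking POS-1 binding to fluorescent RNA.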

Data set [12] in a line: fluconazole-exposed Candida albicans growth modulators – fluorescence, retest, confirmation (AID 2467). It is filed as functional, cell-based.
Data set [13] is described as follows: NIH-3T3 fibroblast cytotoxicity, dose response, cytotoxicity control, cell-based, fluorescence, Alamar Blue, secondary assay (AID 2327).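 Note: NIH-3T3 mouse fibroblasts cultured with fluconazole at 8 µg/mL.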 In kind it is functional. Background: The colour change of resazurin is a common sign of viable cells or microbes.

For orientation: AC50 means the concentration giving half of the maximal activity seen. One may read the IC50 as the concentration that inhibits the measured activity by half. The term EC50 denotes the concentration giving half of the maximal effect.

Molecules are shown by their SMILES. Activity calls are given as the source filed them.

DNA dC->dU-editing enzyme APOBEC-3A, sequence (P31941 whole entry): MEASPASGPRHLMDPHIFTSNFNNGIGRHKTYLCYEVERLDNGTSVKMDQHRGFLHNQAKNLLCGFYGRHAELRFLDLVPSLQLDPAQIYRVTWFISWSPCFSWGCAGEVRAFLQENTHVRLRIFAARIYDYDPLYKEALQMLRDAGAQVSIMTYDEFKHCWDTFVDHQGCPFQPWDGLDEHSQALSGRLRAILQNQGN
DNA dC->dU-editing enzyme APOBEC-3G, sequence (Q9HC16 whole entry): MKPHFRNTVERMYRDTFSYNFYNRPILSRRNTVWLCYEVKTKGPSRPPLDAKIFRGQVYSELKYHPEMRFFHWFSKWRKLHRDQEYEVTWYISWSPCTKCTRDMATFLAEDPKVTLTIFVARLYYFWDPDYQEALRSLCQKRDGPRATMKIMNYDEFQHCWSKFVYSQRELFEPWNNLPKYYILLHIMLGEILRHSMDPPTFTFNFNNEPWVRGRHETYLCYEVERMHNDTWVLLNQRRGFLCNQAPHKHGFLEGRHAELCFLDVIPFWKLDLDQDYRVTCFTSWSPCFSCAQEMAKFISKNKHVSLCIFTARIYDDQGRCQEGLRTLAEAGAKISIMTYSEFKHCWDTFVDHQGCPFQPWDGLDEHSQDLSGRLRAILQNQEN
Cytochrome P450 2D6, sequence (P10635 whole entry): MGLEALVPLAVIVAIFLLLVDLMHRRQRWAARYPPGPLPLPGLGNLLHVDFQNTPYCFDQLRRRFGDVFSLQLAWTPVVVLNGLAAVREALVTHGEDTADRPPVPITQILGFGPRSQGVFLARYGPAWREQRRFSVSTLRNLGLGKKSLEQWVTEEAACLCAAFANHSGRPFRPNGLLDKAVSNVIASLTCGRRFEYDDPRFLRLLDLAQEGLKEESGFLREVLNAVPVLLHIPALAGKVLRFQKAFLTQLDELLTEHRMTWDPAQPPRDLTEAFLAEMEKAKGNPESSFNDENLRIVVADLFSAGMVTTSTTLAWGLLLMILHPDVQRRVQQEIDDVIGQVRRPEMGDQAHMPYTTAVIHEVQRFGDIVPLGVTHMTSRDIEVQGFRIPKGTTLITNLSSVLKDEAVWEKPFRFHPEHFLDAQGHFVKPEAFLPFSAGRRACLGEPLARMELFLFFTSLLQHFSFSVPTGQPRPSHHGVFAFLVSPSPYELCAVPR
Cytochrome P450 3A4, sequence (P08684 whole entry): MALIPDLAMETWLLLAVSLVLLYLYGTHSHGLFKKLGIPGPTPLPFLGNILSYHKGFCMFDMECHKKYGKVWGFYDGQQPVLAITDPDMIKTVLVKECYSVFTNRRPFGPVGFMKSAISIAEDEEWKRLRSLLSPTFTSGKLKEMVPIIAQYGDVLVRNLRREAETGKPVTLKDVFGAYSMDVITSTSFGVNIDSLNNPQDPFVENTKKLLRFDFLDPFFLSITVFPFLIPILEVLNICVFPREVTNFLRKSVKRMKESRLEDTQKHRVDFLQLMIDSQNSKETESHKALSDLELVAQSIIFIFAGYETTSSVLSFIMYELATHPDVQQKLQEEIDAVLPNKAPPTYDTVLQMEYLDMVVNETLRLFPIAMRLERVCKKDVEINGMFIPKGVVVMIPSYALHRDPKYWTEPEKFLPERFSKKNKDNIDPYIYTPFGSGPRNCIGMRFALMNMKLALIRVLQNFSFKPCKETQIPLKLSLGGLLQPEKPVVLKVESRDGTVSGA
Cytochrome P450 2C19, sequence (P33261 whole entry): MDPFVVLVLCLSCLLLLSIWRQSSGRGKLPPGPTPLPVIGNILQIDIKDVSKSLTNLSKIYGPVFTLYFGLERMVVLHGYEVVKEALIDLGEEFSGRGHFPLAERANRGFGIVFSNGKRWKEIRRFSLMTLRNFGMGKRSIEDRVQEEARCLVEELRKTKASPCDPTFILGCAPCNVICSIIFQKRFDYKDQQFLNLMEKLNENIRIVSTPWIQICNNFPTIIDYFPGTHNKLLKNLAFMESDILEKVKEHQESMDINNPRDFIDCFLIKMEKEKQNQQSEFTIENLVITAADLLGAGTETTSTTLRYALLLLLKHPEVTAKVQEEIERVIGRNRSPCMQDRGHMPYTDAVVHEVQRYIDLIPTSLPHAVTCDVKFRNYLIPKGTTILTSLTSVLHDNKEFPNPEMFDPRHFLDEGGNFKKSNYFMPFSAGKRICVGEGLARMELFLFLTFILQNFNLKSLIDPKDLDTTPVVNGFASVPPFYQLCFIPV

For the molecule `Cc1csc(NC(=O)c2ccc(COc3ccccc3)o2)n1`, the figures for the AC50 in data set [1] and in data set [2] were 2.62 µM (active) and 32.2 µM (active), respectively.
`CC(C)C(CO)N1CCN(Cc2ccccc2)CCC1=O` (stereo not given): the IC50 was 8.79 µM (active) in [3] and 10.1 µM (active) in data set [4].
As for `C[C@@H](O)CC(C)(C)N.Oc1c(Cl)c(Cl)c(Cl)c(Cl)c1Cl`, the concentration at half-maximal activity (AC50) entry on Cytochrome P450 2C19 was “inactive”; on Cytochrome P450 3A4 it was “inconclusive”; on Cytochrome P450 2D6, “inactive”.
With `c1ccc2sc(Sc3ncnc4sccc34)nc2c1`, the concentration for half-maximal inhibition (IC50) in the data set on Jurkat is 0.41 µM (active); in data set [5], > 80 µM (inactive). Also, the CC50 in data set [6] was 32.9 µM (active).
Take `CC(C)(CN)CN`: on Cytochrome P450 2D6, the AC50 entry is “inconclusive”.
Turning to `CCN1CCN(C(=O)C2CCN(Cc3nc(-c4cccc(Cl)c4)oc3C)CC2)CC1`, in the data set with Vero [7], the CC50 was > 25 µM (active). The IC50 in the data set with Vero [8] is > 25 µM (active).
On to `CC(=O)Oc1cc2cccc(OC(C)=O)c(=O)c2c(OC(C)=O)c1OC(C)=O`, for which the IC50 (at Exodeoxyribonuclease V; in [10]) was > 119 µM (inactive) throughout. Also, the values for the half-maximal effective concentration (EC50) in data set [9] and in data set [11] were 2.01 µM (active) and 5.6 µM (active), respectively.
Turning to `ClCCn1cnc2c(SCc3ccccc3Cl)ncnc21`, the concentration for half-maximal inhibition (IC50) in the data set on Vero [8] was < 0.05 µM (active).
In the case of `CNC(=O)/C(C#N)=C\c1ccc(CNS(=O)(=O)c2ccc(Cl)cc2)o1`, the IC50 in data set [3] is 3.02 µM (active); in data set [4] it was 2.81 µM (active).
With `COc1ccc(C(=O)C=Cc2ccc(OCc3ccccc3)c(OC)c2)cc1OC`, the CC50 with Vero [7] was 20.9 µM (active).
As for `O=C(NNC(=O)c1cc(-c2ccncc2)nc2ccccc12)c1ccccc1O`, the EC50 in [12] is 3.18 µM (active); in data set [13] it was > 160 µM (inactive). For the same molecule, the IC50 (at Exodeoxyribonuclease V; in data set [10]) was > 119 µM (inactive) each time.
